This note sets out measurements from patent US7538084B2, “Cyclosporins” (AMR Technology, Inc., priority 2003, dated 2009).

For test [1], the system named is murine splenocytes. In words: one-way mixed lymphocyte reaction (MLR) assay, murine. In kind it is cell-based, mouse. Here is the method:
(§1) The MLR assay was designed to measure ^3H-thymidine uptake by human lymphocytes or murine splenocytes that are undergoing cell proliferation in an immune response to allogeneic stimulation. The murine system uses the H2 disparate inbred mouse strains: Balb/c (H2^d) and C57B1/6 (H2^b).
Initial screens were done at a fixed value of 100 ng/ml test compound.

For test [2], the system named is human T-lymphocytes. Conditions: mixed lymphocyte reaction assay in human T-lymphocytes.
Description: as §1

Regarding “Cyclosporin A Methyl Vinyl Ketone (IIIa) [Compound IIIa]”, the “IC50 (concentration inhibiting proliferation by 50% relative to control)” value in test [1] (3H-thymidine uptake, Balb/c responder splenocytes, γ-irradiated C57B1/6 stimulators, 7 point concentration-response curves) was found to be 0.31 µg/mL. In addition, the immunosuppressive activity entry in test [1] (mixed lymphocyte reaction assay in murine splenocytes) and in test [2] was “significant immunosuppressive activity” in each case.
